These results are taken from paper PMC4232212 (Clinical cancer research : an official journal of the …, 2009).

One assay deals with T1, CXCR2 (Homo sapiens, UniProt P25025).
T1 sequence (P25025 1-360): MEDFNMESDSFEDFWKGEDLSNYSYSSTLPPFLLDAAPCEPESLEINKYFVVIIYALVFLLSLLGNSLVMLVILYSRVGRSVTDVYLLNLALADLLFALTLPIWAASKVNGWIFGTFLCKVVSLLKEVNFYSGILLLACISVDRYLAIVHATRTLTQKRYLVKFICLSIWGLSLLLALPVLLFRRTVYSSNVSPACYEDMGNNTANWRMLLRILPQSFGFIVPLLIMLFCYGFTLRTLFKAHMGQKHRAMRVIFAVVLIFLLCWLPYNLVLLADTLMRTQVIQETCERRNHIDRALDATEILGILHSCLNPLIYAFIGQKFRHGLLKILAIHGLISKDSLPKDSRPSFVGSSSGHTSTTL
Put plainly: Ki calculated from IC50 by the Cheng-Prusoff equation. Type of assay: binding. The following applies: read-out: KiCXCR2 (nmol/L).

The target of the next assay is T2, CXCR1 (Homo sapiens, UniProt P25024).
T2 sequence (P25024 1-350): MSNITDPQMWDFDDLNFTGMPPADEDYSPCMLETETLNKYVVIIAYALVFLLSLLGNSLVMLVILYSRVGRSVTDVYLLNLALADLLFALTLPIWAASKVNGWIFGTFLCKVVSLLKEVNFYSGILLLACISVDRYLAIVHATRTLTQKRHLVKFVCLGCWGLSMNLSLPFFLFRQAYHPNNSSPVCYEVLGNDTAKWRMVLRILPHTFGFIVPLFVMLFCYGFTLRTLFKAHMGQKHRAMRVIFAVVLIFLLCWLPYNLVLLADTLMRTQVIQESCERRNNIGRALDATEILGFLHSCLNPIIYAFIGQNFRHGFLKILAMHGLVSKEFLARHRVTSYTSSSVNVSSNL
The assay is described as above. The note with it: read-out: KiCXCR1 (nmol/L). The class given is binding.

Take SCH-479833: the Ki on CXCR2 is 0.17 nmol/L; on CXCR1, 7 nmol/L.
